One assay deals with prostate. As to the kind of experiment: 10-day prostate involution study in rats. The format is in vivo, rat. The settings on record: for Mean (±SEM) prostate weights: 10 days, intact rats. The method, then: Enzalutamide and Compound A were orally administered once daily at the indicated doses. After 10 days of treatment, the prostate tissue from each rat was isolated and weighed. Treatment groups (n=5 per group) were compared by one way ANOVA. Note: ns: not significant, *: p<0.05, **: p≤0.01.
To substantiate the on-target mechanism of Compound A, a prostate involution study was conducted in rats. […] Twenty-four hours after the last dose, the rats were euthanized, and the prostate organs were isolated and weighed.

A further assay concerns the target T1, AR (Homo sapiens, UniProt P10275).
T1 sequence (P10275 1-920): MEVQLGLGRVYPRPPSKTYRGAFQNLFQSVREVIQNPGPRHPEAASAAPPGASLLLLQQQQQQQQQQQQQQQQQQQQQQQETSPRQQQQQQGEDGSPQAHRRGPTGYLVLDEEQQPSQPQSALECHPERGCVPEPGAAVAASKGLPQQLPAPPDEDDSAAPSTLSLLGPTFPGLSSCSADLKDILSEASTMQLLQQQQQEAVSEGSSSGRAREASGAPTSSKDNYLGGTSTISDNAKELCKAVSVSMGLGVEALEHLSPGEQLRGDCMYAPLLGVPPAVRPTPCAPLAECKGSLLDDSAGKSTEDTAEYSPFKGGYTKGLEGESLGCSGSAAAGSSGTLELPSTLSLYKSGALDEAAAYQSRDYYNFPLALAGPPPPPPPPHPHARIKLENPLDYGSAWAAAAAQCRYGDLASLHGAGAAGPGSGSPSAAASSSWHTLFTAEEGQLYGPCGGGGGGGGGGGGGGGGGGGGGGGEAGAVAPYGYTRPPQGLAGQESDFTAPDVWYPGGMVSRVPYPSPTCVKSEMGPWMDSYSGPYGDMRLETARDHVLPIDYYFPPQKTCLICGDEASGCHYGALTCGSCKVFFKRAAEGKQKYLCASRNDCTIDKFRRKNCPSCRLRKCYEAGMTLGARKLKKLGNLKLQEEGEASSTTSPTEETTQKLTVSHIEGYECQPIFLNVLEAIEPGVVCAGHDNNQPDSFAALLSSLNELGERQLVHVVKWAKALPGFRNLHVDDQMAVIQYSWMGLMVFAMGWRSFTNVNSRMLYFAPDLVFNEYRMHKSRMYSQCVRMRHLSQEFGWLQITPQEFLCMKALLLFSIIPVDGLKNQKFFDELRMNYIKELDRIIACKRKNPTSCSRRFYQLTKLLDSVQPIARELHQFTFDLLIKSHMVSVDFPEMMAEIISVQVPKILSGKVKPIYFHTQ
As to the kind of experiment: selectivity screening panel: AR binding. The settings on record: 1 μM. The method, then:
Compound A was tested at 1 μM in a screening study to assess the interaction of Compound A with a panel of 44 targets, including receptors, ion channels, transporters, and enzymes. Any effect greater than 50% of the positive control for a target was considered to represent an interaction of the test compound with the target.

The target of a further assay is T2, AR T878S (Homo sapiens, UniProt P10275, T878S).
T2 construct: expressed in transfected cells; host or cells: T-REx-293
As to the kind of experiment: AR degradation in T-Rex-293 cell line, T878S. The conditions noted are these: T-Rex-293, ELISA. The format is cell-based. The text has this:
(§1) FIG. 3 is a graph showing Compound A's ability to degrade clinically relevant mutated forms AR.
(§2) To assess the ability of Compound A to degrade variants of the AR, vectors expressing wild-type AR or mutant AR proteins harboring clinically observed mutations in the ligand binding domain (13 with single amino acid changes or 4 with 2 amino acid changes) (Azad A. A., Volik S. V., Wyatt A. W., et al. Androgen receptor gene aberrations in circulating cell-free DNA: biomarkers of therapeutic resistance in castration-resistant prostate cancer. Clin Cancer Res. 2015; 21:2315-2324; Robinson D., Van Allen E. M., Wu Y. M., et al. Integrative clinical genomics of advanced prostate cancer. Cell. 2015; 161:1215-1228; Ledet E. M., Lilly M. B., Sonpavde G., et al. Comprehensive analysis of AR alterations in circulating tumor DNA from patients with advanced prostate cancer. Oncologist.
In general terms: ELISA stands for enzyme-linked immunosorbent assay.

Another assay addresses T3, AR H875Y/T878A (Homo sapiens, UniProt P10275, H875Y/T878A).
T3 construct: expressed in transfected cells; host or cells: T-REx-293
The assay is described as follows: AR degradation in T-Rex-293 cell line, H875Y/T878A. The settings on record: T-Rex-293, ELISA. The assay is classed as cell-based.
Description: as §1, §2

The next assay addresses T4, AR T878A/D891H (Homo sapiens, UniProt P10275, D891H/T878A).
T4 construct: expressed in transfected cells; host or cells: T-REx-293
As to the kind of experiment: AR degradation in T-Rex-293 cell line, T878A/D891H. The format is cell-based. The settings on record: T-Rex-293, ELISA.
Description: as §1, §2

A further assay deals with T5, AR M750T (Homo sapiens, UniProt P10275, M750T).
T5 construct: expressed in transfected cells; host or cells: T-REx-293
As to the kind of experiment: AR degradation in T-Rex-293 cell line, M750T. The conditions noted are these: T-Rex-293, ELISA. The format is cell-based.
Description: as §1, §2

The record followed here is US20240180900A1, “COMPOUNDS AND METHODS FOR THE TARGETED DEGRADATION OF ANDROGEN RECEPTOR” (Arvinas Operations, Inc., priority 2022, published 2024).

T4 sequence (P10275 whole entry T878A/D891H): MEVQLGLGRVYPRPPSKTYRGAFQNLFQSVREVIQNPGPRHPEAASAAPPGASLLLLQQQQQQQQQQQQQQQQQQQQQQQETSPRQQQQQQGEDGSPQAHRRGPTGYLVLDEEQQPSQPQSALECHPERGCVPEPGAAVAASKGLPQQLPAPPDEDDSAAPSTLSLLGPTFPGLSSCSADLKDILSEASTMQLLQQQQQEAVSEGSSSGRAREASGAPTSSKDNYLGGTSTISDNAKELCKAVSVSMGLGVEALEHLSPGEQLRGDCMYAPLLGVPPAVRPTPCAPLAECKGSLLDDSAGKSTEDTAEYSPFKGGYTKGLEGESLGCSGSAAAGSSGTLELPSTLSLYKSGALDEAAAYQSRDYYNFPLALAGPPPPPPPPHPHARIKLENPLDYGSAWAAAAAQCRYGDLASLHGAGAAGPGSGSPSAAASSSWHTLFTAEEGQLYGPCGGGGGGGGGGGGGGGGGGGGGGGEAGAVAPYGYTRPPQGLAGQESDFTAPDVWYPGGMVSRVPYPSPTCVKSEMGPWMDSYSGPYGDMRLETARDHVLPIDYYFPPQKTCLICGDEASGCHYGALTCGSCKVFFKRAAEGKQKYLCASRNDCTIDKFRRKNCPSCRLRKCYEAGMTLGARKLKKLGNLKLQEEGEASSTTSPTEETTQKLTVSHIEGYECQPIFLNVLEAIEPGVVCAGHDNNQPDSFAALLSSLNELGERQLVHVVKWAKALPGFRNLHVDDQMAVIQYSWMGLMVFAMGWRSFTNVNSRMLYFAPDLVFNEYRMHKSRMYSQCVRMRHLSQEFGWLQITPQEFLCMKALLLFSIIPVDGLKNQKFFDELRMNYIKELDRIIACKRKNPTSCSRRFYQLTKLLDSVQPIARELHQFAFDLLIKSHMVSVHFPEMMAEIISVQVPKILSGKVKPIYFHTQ
T5 sequence (P10275 whole entry M750T): as the sequence (P10275 whole entry T878A/D891H) above, with M750T, A878T, H891D counted along it
T2 sequence (P10275 whole entry T878S): as the sequence (P10275 whole entry T878A/D891H) above, with A878S, H891D counted along it
T3 sequence (P10275 whole entry H875Y/T878A): as the sequence (P10275 whole entry T878A/D891H) above, with H875Y, H891D counted along it

Take `COc1cc(O[C@H]2C(C)(C)[C@H](NC(=O)c3ccc(N4CCC(CN5CCN(c6ccc(C(=O)N[C@H]7CCC(=O)NC7=O)c(F)c6)CC5)CC4)cc3)C2(C)C)ccc1C#N` [Compound A, 4-(4-((1-(4-(((1R,3R)-3-(4-cyano-3-methoxyphenoxy)-2,2,4,4-tetramethylcyclobutyl)carbamoyl)phenyl)piperidin-4-yl)methyl)piperazin-1-yl)-N—((S)-2,6-dioxopiperidin-3-yl)-2-fluorobenzamide]: the entries for the “Mean (±SEM) prostate weights” value with prostate (5 mg/kg/day orally), in the assay with prostate (15 mg/kg/day orally) and in the assay on prostate (45 mg/kg/day orally) were 673+105 mg, 384 ± 47 mg and 422 ± 56 mg, respectively. In addition, in the assay with prostate (all doses tested (5, 15, 45 mg/kg/day)), the “prostate weight reduction compared with enzalutamide” value is listed as “reduced prostate weights to a greater degree at all doses tested”. Moreover, at AR, the “binding to AR, % of positive control testosterone” value was 98.6%. In addition, the half-maximal degradation concentration (DC50) (usually the concentration giving 50% degradation) amounted to 0.9 nM at AR T878S, 7.7 nM at AR H875Y/T878A, 3.4 nM at AR T878A/D891H and 0.6 nM at AR M750T.
